pIC50: −log10 of the molar value.
What was measured:
[1] = molecular target: Tyrosine-protein kinase JAK2 (Homo sapiens) (UniProt O60674); assay: Inhibition of recombinant full length human GST-tagged JAK2 expressed in baculovirus expression system at 1 uM using biotin as substrate preincubated for 5 mins followed by substrate addition and measured after 30 to 60 mins in presence of ATP by HTRF assay relative to control
[2] = molecular target: Tyrosine-protein kinase Fes/Fps (Homo sapiens) (UniProt P07332); assay: (§1) Inhibition of recombinant human His-tagged FES expressed in baculovirus system at 1 uM using biotin as substrate preincubated for 5 mins followed by substrate addition and measured after 30 to 60 mins in presence of ATP by HTRF assay relative to control
[3] = molecular target: High affinity nerve growth factor receptor (Homo sapiens, UniProt P04629); assay: as §1, with “TRKA catalytic domain (441 to 796 residues)” for “FES”, “baculovirus expression” for “baculovirus”
[4] = in vitro; settings: human, liver microsomes
[5] = Oral bioavailability in Sprague-Dawley rat at 5.0 mg/kg, ig measured for 15 min to 72 hrs by LC-MS/MS analysis; assay type: ADME, organism-based; settings: in vivo
[6] = molecular target: Cyclin-dependent kinase 5/CDK5 activator 1 (Homo sapiens) (UniProt Q00535+Q15078); assay: Inhibition of recombinant full length human GST/His-tagged CDK5/p25 expressed in baculovirus expression system at 1 uM using biotin as substrate preincubated for 5 mins followed by substrate addition and measured after 30 to 60 mins in presence of ATP by HTRF assay relative to control
[7] = molecular target: Tyrosine-protein kinase CSK (Homo sapiens) (UniProt P41240); assay: Inhibition of recombinant full length human His-tagged CSK at 1 uM using biotin as substrate preincubated for 5 mins followed by substrate addition and measured after 30 to 60 mins in presence of ATP by HTRF assay relative to control
[8] = molecular target: Mitogen-activated protein kinase 9 (Homo sapiens) (UniProt P45984); assay: Inhibition of recombinant full length human His-tagged MAPK9 expressed in baculovirus expression system at 1 uM using biotin as substrate preincubated for 5 mins followed by substrate addition and measured after 30 to 60 mins in presence of ATP by HTRF assay relative to control
[9] = molecular target: Tyrosine-protein kinase JAK1 (Homo sapiens) (UniProt P23458); assay: Inhibition of recombinant full length human GST-tagged JAK1 expressed in baculovirus expression system at 1 uM using biotin as substrate preincubated for 5 mins followed by substrate addition and measured after 30 to 60 mins in presence of ATP by HTRF assay relative to control
[10] = molecular target: Ephrin type-B receptor 4 (Homo sapiens) (UniProt P54760); assay: Inhibition of recombinant full length human His-tagged EPHB4 expressed in baculovirus expression system at 1 uM using biotin as substrate preincubated for 5 mins followed by substrate addition and measured after 30 to 60 mins in presence of ATP by HTRF assay relative to control
[11] = molecular target: Macrophage-stimulating protein receptor (Homo sapiens, UniProt Q04912); assay: (§2) Inhibition of recombinant human GST-tagged RON expressed in baculovirus system at 1 uM using biotin as substrate preincubated for 5 mins followed by substrate addition and measured after 30 to 60 mins in presence of ATP by HTRF assay relative to control
[12] = AUC (0 to infinity) in Sprague-Dawley rat at 5.0 mg/kg, ig measured for 15 min to 72 hrs by LC-MS/MS analysis; assay type: ADME, organism-based; parameters: dose 5 mg/kg, time infinity, route intragastric; settings: in vivo, po
[13] = molecular target: Proto-oncogene tyrosine-protein kinase ROS (Homo sapiens) (UniProt P08922); assay: as §2, with “ROS1 catalytic domain (1883 to 2347 residues)” for “RON”, “baculovirus expression” for “baculovirus”
[14] = molecular target: Vascular endothelial growth factor receptor 3 (Homo sapiens, UniProt P35916); assay: as §2, with “FLT4 catalytic domain (800 to 1297 residues)” for “RON”, “baculovirus expression” for “baculovirus”
[15] = molecular target: Aurora kinase A (Homo sapiens) (UniProt O14965); assay: Inhibition of recombinant full length human His-tagged Aurora A expressed in baculovirus expression system at 1 uM using biotin as substrate preincubated for 5 mins followed by substrate addition and measured after 30 to 60 mins in presence of ATP by HTRF assay relative to control
[16] = system: HT-29; assay: Antiproliferative activity against human HT-29 cells at 10 uM incubated for 72 hrs by MTT assay relative to control; assay type: functional; settings: HT-29, 72 h
[17] = molecular target: Dual specificity tyrosine-phosphorylation-regulated kinase 3 (Homo sapiens) (UniProt O43781); assay: Inhibition of recombinant human GST-tagged DYRK3 expressed in baculovirus system at 1 uM using biotin as substrate preincubated for 5 mins followed by substrate addition and measured after 30 to 60 mins in presence of ATP by HTRF assay relative to control
[18] = molecular target: Aurora kinase B (Homo sapiens) (UniProt Q96GD4); assay: Inhibition of recombinant full length human His-tagged Aurora B expressed in baculovirus expression system at 1 uM using biotin as substrate preincubated for 5 mins followed by substrate addition and measured after 30 to 60 mins in presence of ATP by HTRF assay relative to control
[19] = molecular target: BDNF/NT-3 growth factors receptor (Homo sapiens, UniProt Q16620); assay: as §1, with “TRKB catalytic domain (526 to 838 residues)” for “FES”, “baculovirus expression” for “baculovirus”
[20] = molecular target: Proto-oncogene tyrosine-protein kinase receptor Ret (Homo sapiens) (UniProt P07949); assay: Inhibition of recombinant human GST/His6-tagged RET (658 to 1114 residues) expressed in baculovirus infected Sf9 insect cells at 1 uM using biotin as substrate preincubated for 5 mins followed by substrate addition and measured after 30 to 60 mins in presence of ATP by HTRF assay relative to control
[21] = molecular target: Tyrosine-protein kinase receptor TYRO3 (Homo sapiens, UniProt Q06418); assay: Inhibition of recombinant human GST-tagged RSE catalytic domain (451 to 890 residues) expressed in baculovirus expression system using biotin as substrate preincubated for 5 mins followed by substrate addition and measured after 30 to 60 mins in presence of ATP by HTRF assay
[22] = Mean residence time in Sprague-Dawley rat at 5.0 mg/kg, ig measured for 15 min to 72 hrs by LC-MS/MS analysis; assay type: ADME, organism-based; settings: in vivo, po
[23] = molecular target: Tyrosine-protein kinase Mer (Homo sapiens) (UniProt Q12866); assay: Inhibition of recombinant human GST-tagged cMER (578 to 872 residues) expressed in baculovirus infected Sf21 insect cells at 1 uM using biotin as substrate preincubated for 5 mins followed by substrate addition and measured after 30 to 60 mins in presence of ATP by HTRF assay relative to control
[24] = molecular target: Ribosomal protein S6 kinase alpha-5 (Homo sapiens) (UniProt O75582); assay: Inhibition of recombinant full length human GST-tagged RPS6KA5 expressed in baculovirus expression system at 1 uM using biotin as substrate preincubated for 5 mins followed by substrate addition and measured after 30 to 60 mins in presence of ATP by HTRF assay relative to control

Mitogen-activated protein kinase 9 (Homo sapiens), sequence (P45984 whole entry, looked up): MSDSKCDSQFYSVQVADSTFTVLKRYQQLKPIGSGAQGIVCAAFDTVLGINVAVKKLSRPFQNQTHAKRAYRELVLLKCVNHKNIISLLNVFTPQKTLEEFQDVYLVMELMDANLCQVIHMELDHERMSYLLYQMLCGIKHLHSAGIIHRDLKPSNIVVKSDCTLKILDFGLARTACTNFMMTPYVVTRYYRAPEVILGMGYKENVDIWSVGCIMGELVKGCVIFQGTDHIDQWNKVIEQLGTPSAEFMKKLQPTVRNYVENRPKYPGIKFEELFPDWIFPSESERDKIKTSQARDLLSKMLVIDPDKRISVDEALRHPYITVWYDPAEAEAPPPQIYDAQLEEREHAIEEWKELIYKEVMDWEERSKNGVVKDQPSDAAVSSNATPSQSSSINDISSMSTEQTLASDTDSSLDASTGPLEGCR
Aurora kinase A (Homo sapiens), sequence (O14965 whole entry): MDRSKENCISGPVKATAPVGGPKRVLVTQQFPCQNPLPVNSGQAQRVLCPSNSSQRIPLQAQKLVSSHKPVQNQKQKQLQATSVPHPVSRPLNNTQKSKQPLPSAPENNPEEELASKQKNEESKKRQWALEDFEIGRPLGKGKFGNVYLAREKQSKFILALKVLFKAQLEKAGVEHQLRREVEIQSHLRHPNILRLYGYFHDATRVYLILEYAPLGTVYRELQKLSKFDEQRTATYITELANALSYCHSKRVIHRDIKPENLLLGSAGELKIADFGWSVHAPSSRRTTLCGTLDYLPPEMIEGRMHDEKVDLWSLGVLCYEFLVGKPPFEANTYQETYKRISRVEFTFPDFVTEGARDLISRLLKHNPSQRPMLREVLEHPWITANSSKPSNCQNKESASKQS
Aurora kinase B (Homo sapiens), sequence (Q96GD4 whole entry, the tested form may be a part): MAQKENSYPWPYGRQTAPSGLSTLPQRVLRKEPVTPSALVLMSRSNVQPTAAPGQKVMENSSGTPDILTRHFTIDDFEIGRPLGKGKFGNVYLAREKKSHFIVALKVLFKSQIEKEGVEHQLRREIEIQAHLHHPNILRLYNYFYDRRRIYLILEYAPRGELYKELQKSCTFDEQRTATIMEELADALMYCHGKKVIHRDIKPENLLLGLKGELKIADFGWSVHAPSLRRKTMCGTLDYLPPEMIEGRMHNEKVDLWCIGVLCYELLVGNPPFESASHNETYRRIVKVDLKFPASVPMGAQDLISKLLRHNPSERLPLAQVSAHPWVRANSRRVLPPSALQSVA
BDNF/NT-3 growth factors receptor, sequence (Q16620 32-822 limits assumed): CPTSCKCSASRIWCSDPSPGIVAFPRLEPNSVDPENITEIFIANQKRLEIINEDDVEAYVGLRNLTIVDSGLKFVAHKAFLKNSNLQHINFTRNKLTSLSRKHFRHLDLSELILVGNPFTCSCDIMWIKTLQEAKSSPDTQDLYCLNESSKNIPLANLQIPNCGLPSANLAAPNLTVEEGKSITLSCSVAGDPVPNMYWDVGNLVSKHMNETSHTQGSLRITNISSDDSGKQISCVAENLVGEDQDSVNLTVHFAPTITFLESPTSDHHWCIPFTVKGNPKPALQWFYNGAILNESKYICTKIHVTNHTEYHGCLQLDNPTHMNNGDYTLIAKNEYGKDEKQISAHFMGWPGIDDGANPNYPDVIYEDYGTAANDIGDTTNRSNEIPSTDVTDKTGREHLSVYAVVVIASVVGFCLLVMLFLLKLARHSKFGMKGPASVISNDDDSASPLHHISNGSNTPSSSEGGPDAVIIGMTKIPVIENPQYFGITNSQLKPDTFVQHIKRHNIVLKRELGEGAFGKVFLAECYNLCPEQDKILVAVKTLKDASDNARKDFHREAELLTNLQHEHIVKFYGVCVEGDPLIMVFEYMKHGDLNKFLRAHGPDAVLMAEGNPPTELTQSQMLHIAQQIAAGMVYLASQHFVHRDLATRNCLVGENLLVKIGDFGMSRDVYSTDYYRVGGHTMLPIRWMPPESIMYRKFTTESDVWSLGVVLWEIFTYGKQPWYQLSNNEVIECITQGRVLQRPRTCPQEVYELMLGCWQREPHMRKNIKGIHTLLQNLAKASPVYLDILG
High affinity nerve growth factor receptor, sequence (P04629 33-796 limits assumed): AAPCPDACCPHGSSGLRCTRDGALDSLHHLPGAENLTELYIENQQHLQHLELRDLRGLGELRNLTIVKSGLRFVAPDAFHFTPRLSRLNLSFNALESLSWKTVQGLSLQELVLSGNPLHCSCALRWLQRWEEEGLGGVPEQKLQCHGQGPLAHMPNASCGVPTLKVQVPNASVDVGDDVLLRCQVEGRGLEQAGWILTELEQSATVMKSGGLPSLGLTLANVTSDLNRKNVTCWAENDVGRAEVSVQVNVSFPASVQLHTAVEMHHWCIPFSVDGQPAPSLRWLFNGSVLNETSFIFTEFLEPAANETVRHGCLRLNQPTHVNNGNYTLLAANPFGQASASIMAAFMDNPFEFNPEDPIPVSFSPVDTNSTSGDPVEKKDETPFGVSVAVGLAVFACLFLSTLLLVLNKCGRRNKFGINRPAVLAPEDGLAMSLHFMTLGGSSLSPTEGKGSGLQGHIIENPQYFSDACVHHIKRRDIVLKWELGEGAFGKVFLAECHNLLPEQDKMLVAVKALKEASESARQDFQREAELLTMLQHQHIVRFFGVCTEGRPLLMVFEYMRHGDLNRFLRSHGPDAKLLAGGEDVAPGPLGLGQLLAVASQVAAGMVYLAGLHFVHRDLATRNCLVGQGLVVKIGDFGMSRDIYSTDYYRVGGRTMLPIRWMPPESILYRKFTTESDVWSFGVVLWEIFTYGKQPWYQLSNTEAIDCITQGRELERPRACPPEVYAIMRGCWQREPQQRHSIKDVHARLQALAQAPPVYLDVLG
Proto-oncogene tyrosine-protein kinase receptor Ret (Homo sapiens), sequence (P07949 whole entry, the tested form may be a part): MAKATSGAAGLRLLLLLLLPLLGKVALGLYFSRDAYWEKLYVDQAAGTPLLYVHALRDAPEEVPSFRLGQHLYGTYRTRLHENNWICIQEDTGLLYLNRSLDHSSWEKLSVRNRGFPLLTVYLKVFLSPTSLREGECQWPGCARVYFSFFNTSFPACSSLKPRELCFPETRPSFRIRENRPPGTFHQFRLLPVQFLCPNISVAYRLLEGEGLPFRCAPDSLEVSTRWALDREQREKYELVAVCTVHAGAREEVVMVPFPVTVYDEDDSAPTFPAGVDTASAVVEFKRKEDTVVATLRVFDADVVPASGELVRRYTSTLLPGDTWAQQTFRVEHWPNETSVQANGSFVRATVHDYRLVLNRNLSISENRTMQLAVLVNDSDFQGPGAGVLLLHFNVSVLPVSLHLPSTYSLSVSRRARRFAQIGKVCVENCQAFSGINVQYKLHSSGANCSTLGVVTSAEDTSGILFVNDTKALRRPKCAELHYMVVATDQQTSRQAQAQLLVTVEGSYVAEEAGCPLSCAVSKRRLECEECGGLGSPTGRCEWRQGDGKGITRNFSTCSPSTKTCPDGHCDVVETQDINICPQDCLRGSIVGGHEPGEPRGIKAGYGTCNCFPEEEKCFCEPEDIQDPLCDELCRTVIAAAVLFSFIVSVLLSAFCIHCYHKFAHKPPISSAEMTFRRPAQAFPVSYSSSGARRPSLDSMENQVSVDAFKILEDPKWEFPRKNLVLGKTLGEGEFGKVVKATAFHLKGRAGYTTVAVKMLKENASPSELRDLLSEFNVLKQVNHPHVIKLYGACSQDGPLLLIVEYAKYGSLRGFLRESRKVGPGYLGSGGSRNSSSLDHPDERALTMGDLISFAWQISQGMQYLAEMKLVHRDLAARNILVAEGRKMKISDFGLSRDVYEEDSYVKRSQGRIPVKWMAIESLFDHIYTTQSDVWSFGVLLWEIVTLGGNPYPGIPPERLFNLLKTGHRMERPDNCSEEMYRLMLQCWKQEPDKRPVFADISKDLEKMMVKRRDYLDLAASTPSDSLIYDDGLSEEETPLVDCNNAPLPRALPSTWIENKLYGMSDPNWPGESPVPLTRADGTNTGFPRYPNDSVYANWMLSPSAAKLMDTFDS
Tyrosine-protein kinase Fes/Fps (Homo sapiens), sequence (P07332 whole entry, the tested form may be a part): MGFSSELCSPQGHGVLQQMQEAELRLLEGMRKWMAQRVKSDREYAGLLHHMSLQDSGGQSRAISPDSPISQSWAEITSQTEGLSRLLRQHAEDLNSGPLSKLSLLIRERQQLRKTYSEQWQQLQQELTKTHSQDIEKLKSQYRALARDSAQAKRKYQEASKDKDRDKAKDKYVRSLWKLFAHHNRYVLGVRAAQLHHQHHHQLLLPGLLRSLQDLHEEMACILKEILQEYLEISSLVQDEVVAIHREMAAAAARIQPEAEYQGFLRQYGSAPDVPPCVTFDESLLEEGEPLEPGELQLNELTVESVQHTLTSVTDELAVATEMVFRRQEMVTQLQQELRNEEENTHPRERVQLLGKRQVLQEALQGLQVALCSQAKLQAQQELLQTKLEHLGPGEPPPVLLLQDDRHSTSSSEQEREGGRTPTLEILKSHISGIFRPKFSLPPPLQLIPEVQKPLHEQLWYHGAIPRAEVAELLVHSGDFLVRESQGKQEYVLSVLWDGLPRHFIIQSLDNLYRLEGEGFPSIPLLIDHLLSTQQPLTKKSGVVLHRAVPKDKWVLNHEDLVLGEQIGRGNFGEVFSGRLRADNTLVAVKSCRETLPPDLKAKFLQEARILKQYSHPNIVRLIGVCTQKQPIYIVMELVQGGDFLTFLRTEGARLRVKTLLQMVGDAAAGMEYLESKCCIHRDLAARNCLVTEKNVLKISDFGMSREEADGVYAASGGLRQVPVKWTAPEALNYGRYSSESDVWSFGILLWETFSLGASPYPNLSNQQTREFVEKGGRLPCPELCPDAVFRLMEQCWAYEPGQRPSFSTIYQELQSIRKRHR

## Cn1cc(-c2ccc(F)cc2)c(=O)c2c(Nc3ccc(Oc4ccnc(NC(=O)C5CC5)c4)c(F)c3)nccc21
[1]
  inhibition: < 50%
[2]
  inhibition: < 50%
[3]
  inhibition: > 80%
[4]
  half-life: 883 min
[5]
  bioavailability: 58%
[6]
  inhibition: < 50%
[7]
  inhibition: < 50%
[8]
  inhibition: < 50%
[9]
  inhibition: < 50%
[10]
  inhibition: 50 to 79%
[11]
  inhibition: 50 to 79%
[12]
  AUC(0-inf): 233 µg·h/mL
[13]
  inhibition: < 50%
[14]
  inhibition: < 50%
[15]
  inhibition: < 50%
[16]
  inhibition at 10 µM: 24.8%
[17]
  inhibition: < 50%
[18]
  inhibition: < 50%
[19]
  inhibition: > 80%
[20]
  inhibition: < 50%
[21]
  pIC50: 7.39
[22]
  MRT: 32.4 h
[23]
  inhibition: > 80%
[24]
  inhibition: < 50%
